Patent US7112680B2, “Heterocyclic hydrazones for use as anti-cancer agents” (Austria Wirtschaftsservice Gesellschaft MIT Beschrankter …, priority 2000, dated 2006)
Like-named read-outs stand apart in the source and are kept apart here.

Columns and labels:
[1] = test system: multidrug-resistant KB-C1 cells; test: Inhibition of tumor cell growth, SRB-assay, KB-C1; type: cell-based, human
Experimental: (§1) In order to obtain information about the growth-inhibiting action on tumor cells, the inhibition of the growth of the following human tumor cells was determined: Burkitt's lymphoma (CA 46, ATCC No. CRL 1648), CCRF-CEM (acute lymphoblastic leukemia, ATCC No. CCL 119), K562 (chronic myelogenous leukemia, ATTC No. CCL 243), HeLa (epitheloid cervix carcinoma, ATCC No. CCL 2), MEXF 276L (melanoma), HT-29 (colon adenocarcinoma, ATCC No. HTB 38), KB-3-1 (human oral epidermoid carcinoma, CTCC No. CCL 17), KB-HU hydroxyurea-resistant, multidrug-resistant KB-C1 cells (Akiyama et al, Cell. Mol Genet., 11:117–126, 1985). Burkitt's, CCRF-CEM, HeLa and MEXF 276L cells were grown in RPMI 1640, HT-29 cells in McCoy's 5A medium. The KB cell lines were grown in Dulbecco's modified Eagle's medium (4,5 g glucose/l). To the cultures of KB-C1 cells 1 μg of colchicine/ml, and to the hydroxyurea-resistant KB-HU cells 1 mM hydroxyurea was added every other week. The media were supplemented with 10% fetal calf serum (except Burkitt's lymphoma cells with 15%), 2 mM glutamine, 50 units/ml penicillin and 50 μg/ml streptomycin. Inhibition of growth of HeLa, HT-29, KB and MEXF 276L cells was detected by the SRB-assay (Skehan et al, J. Natl Cancer Inst., 82:1107–1112, 1990). 3,000 - 10,000 cells in 200 μl medium were seeded per well into 96-well plates. Dose-response curves for CCRF-CEM and Burkitt's lymphoma cells were effected by an MTT-assay (Mosman, J. Immunol Methods, 65:55–63, 1983) from Boehringer Mannheim, Mannheim, Germany. Approximately 10,000 cells per 100 μl were seeded in 96-well plates. After an initial incubation of four hours, various substance concentrations were added, and the cells were incubated at 37° C. in a water-saturated atmosphere of 95% air and 5% CO2 for 72 hours. The substances were dissolved in dimethylsulfoxide (DMSO). The concentration of DMSO was 0.5%, and this was not toxic to the cells. Subsequently, the samples were fixed, washed, and the absorption was determined by a microplate reader.

[2] = test system: Burkitt's lymphoma (CA 46, ATCC No. CRL 1648); test: Inhibition of tumor cell growth, MTT-assay, Burkitt's lymphoma; type: cell-based, human
Experimental: (§2) The KB cell lines were grown in Dulbecco's modified Eagle's medium (4,5 g glucose/l). To the cultures of KB-C1 cells 1 μg of colchicine/ml, and to the hydroxyurea-resistant KB-HU cells 1 mM hydroxyurea was added every other week. […] 3,000 - 10,000 cells in 200 μl medium were seeded per well into 96-well plates. […] Approximately 10,000 cells per 100 μl were seeded in 96-well plates. […] The substances were dissolved in dimethylsulfoxide (DMSO). […] Subsequently, the samples were fixed, washed, and the absorption was determined by a microplate reader.

[3] = test system: HT-29 (colon adenocarcinoma); test: Inhibition of tumor cell growth, SRB-assay, HT-29; type: cell-based, human
Experimental: as §2

[4] = test system: HeLa (epitheloid cervix carcinoma); test: Inhibition of tumor cell growth, SRB-assay, HeLa; type: cell-based, human
[5] = test system: KB-3-1 (human oral epidermoid carcinoma); test: Inhibition of tumor cell growth, SRB-assay, KB-3-1; type: cell-based
Experimental: as §1

[6] = test system: KB-HU hydroxyurea-resistant cells; test: Inhibition of tumor cell growth, SRB-assay, KB-HU; type: cell-based, human
Experimental: as §1

[7] = test system: human tumor grafts (cell lines of FIG. 1); test: Colony forming assay (two-layer soft agar); type: cell-based; settings: for tumor type selectivity: colony forming assay, IC70 pattern, FIG. 1; for IC50 / IC90 / Mean IC70: mean values of all cell lines tested in FIG. 1, continuous exposure 3 to 6 days
Experimental: An excellent correlation of drug response in patients and the colony forming assay has been found (Scholz et al, Eur. J. Cancer 25:901–905, 1990). Solid human tumors were grown as grafts in nude mice, removed from the latter, mechanically comminuted and subsequently incubated in an enzyme cocktail consisting of collagenase (1.2–1.8 U/ml), DNAse (375 U/ml) and hyaluronidase (29 U/ml) in RPMI 1640 medium at 37° C. for 30 minutes. The cell mixture was passed through sieves of 200 μm and 50 μm mesh size and washed thereafter twice with PBS (phosphate buffered saline). The percentage of live cells was determined using a Neubauer counting chamber and trypan blue staining.
The colony forming assay was performed according to a two-layer agar technique introduced and modified by Hamburger and Salmon (Hamburger and Salmon, Science, 197:461–463, 1977). The bottom layer consisted of 0.2 ml of Iscoves's Modified Dulbecco's medium with 20% fetal calf serum and 0.75% agar. 8×10^3 to 1.6×10^4 cells were added to the same medium and 0.4% agar and plated in 24-multiwell plates onto the base layer. One day after the plating (with continuous exposure), the substances were added in 0.2 ml medium. Each plate included six controls containing the solvent only, and the treated groups contained 6 concentrations of the substances, each in triplicate. Cultures were incubated at 37° C. and 7% CO2 in a water-saturated atmosphere for 3 to 6 days, depending on the doubling time of the tumor cells. At the time of maximum colony formation with a size of […], counts were performed with an automatic image analysis system. 24 h prior to counting, live colonies were stained with a sterile aqueous solution of 2-(4-iodophenyl)-3-(4-nitrophenyl)-5-phenyltetrazolium chloride (1 mg/ml, 100 μl/well). The results of the tests are given in FIG. 1, and in the following Table 5, respectively. […] Columns pointing towards the right show a slighter than average activity.

[8] = Table 1, 72 hours, read-out: IC50 KB-Cl
[9] = Table 1, 72 hours, read-out: IC50 Burkitts
[10] = Table 1, 72 hours, read-out: IC50 HT-29 (converted)
[11] = Table 1, 72 hours, read-out: IC50 HeLa (converted)
[12] = Table 1, 72 hours, read-out: IC50 KB-3-1
[13] = Table 1, 72 hours, read-out: IC50 KB-HU
[14] = Homo sapiens, KBC-1, Table 4, 72 hours, read-out: In vitro-activity against human tumor cell lines, KB-C1
[15] = Homo sapiens, Table 4, 72 hours, read-out: In vitro-activity against human tumor cell lines, KB-HU
[16] = Homo sapiens, KB 3-1, Table 4, 72 hours, read-out: In vitro-activity against human tumor cell lines, KB-3-1
[17] = Table 4, 72 hours, read-out: In vitro-activity against human tumor cell lines, KB-C1
[18] = Table 4, 72 hours, read-out: In vitro-activity against human tumor cell lines, HT-29
[19] = Table 4, 72 hours, read-out: In vitro-activity against human tumor cell lines, KB-HU
[20] = Table 4, 72 hours, read-out: In vitro-activity against human tumor cell lines, HeLa
[21] = Table 4, 72 hours, read-out: In vitro-activity against human tumor cell lines, KB-3-1
[22] = Table 4, 72 hours, read-out: In vitro-activity against human tumor cell lines, Burkitts

Compound | IC50 [1, 8] [nM] | IC50 [3, 10] [nM] | IC50 [4, 11] [nM] | IC50 [5, 12] [nM] | IC50 [1, 17] [nM] | IC50 [6, 19] [nM] | IC50 [5, 21] [nM] | other results
C(=NNc1nc2ccccc2[nH]1)c1ccccn1 [Ia-1] | 2940 | 3690 | 1020 | 1360 | – | – | – | IC50 [2, 9]: 660 nM
Cn1c(NN=Cc2ccccn2)nc2ccccc21 [Ia-2] | – | 270 | 80 | – | – | – | – | IC50 [2, 9]: 30 nM
C(=NNc1nc2ccccc2o1)c1ccccn1 [Ia-3] | 770 | 1440 | 25 | 480 | – | – | – | IC50 [2, 9]: 5 nM; IC50 [6, 13]: 610 nM
CC(=NNc1nc2ccccc2[nH]1)c1ccccn1 [Ia-4, 1-(2-Pyridyl)-1-ethanon-1(1H-benzo[d]imidazol-2-yl)-hydrazone] | – | – | – | – | – | – | – | IC50 ([1]; Homo sapiens, KBC-1, Table 1, 72 hours, read-out: IC50 KB-Cl): 1970 nM; IC50 ([2]; Homo sapiens, CA46, Table 1, 72 hours, read-out: IC50 Burkitts): 44 nM; IC50 ([3]; Homo sapiens, HT-29, Table 1, 72 hours, read-out: IC50 HT-29 (converted)): 490 nM; IC50 ([6]; Homo sapiens, Table 1, 72 hours, read-out: IC50 KB-HU): 900 nM; IC50 ([4]; Homo sapiens, HeLa, Table 1, 72 hours, read-out: IC50 HeLa (converted)): 70 nM; IC50 ([5]; Homo sapiens, KB 3-1, Table 1, 72 hours, read-out: IC50 KB-3-1): 510 nM
CC(=NNc1nc2ccccc2n1C)c1ccccn1 [Ia-5] | 48 | 50 | 5.4 | 44 | – | – | – | IC50 [2, 9]: 4.3 nM; IC50 [6, 13]: 52 nM
CC(=NNc1nc2ccccc2o1)c1ccccn1 [Ia-6] | 610 | 130 | 23 | 210 | – | – | – | IC50 [2, 9]: 9 nM; IC50 [6, 13]: 320 nM
CCC(=NNc1nc2ccccc2[nH]1)c1ccccn1 [Ia-7] | 740 | 240 | 53 | 4010 | – | – | – | –
CCC(=NNc1nc2ccccc2o1)c1ccccn1 [Ia-9] | – | – | – | – | – | – | – | tumor type selectivity [7]: selectivity for colon, breast, ovarian, and uterus tumors
CCCC(=NNc1nc2ccccc2[nH]1)c1ccccn1 [Ia-11] | 830 | 200 | 57 | 500 | – | – | – | IC50 [6, 13]: 130 nM
CC(C)C(=NNc1nc2ccccc2[nH]1)c1ccccn1 [Ia-15] | 1980 | 520 | 21 | 700 | – | – | – | IC50 [6, 13]: 1 nM
CC(C)(C)C(=NNc1nc2ccccc2[nH]1)c1ccccn1 [Ia-19] | 92000 | > 100000 | > 100000 | – | – | – | – | –
c1ccc(C(=NNc2nc3ccccc3[nH]2)C2CC2)nc1 [Ia-23] | 320 | 510 | 70 | – | – | – | – | –
c1ccc(C(=NNc2nc3ccccc3[nH]2)c2ccccn2)nc1 [Ia-36] | 2110 | 1360 | 1430 | – | – | – | – | –
COc1cccnc1C(C)=NNc1nc2ccccc2n1C [Id-1, 1-(3-Methoxy-2-pyridyl)-1-ethanone-1-(1-methyl-1H-benzo[d]imidazol-2-yl)-hydrazone] | – | – | – | – | – | – | – | IC50 [1, 14]: 870 nM; IC50 ([2]; Homo sapiens, CA46, Table 4, 72 hours, read-out: In vitro-activity against human tumor cell lines, Burkitts): 1 nM; IC50 ([3]; Homo sapiens, HT-29, Table 4, 72 hours, read-out: In vitro-activity against human tumor cell lines, HT-29): 230 nM; IC50 [6, 15]: 10 nM; IC50 ([4]; Homo sapiens, HeLa, Table 4, 72 hours, read-out: In vitro-activity against human tumor cell lines, HeLa): 50 nM; IC50 [5, 16]: 20 nM
COc1ccnc(C(C)=NNc2nc3ccccc3n2C)c1 [Id-2] | – | – | – | – | 160 | 40 | 50 | tumor type selectivity [7]: selectivity for colon, breast, ovarian, and uterus tumors; IC50 [7]: 80 nM; IC90 [7]: 2850 nM; Mean IC70 [7]: 261 nM; IC50 [3, 18]: 120 nM; IC50 [4, 20]: 50 nM
CC(=NNc1nc2ccccc2n1C)c1ncccc1Cl [Id-3] | – | – | – | – | 300 | 180 | 310 | IC50 [2, 22]: 4 nM; IC50 [3, 18]: 540 nM; IC50 [4, 20]: 250 nM
CC(=NNc1nc2ccccc2n1C)c1cccc(Br)n1 [Id-6] | – | – | – | – | 2130 | 3890 | 1690 | IC50 [2, 22]: 2490 nM; IC50 [3, 18]: 3150 nM; IC50 [4, 20]: 3250 nM
CC(=NNc1nc2ccccc2n1C)c1ncccc1C [Id-7] | – | – | – | – | 160 | 460 | 260 | –
CC(=NNc1nc2ccccc2n1C)c1cc(C)ccn1 [Id-8] | – | – | – | – | 100 | 20 | 30 | tumor type selectivity [7]: selectivity for colon, breast, ovarian, and uterus tumors; IC50 [7]: 102 nM; IC90 [7]: 2380 nM; Mean IC70 [7]: 317 nM
CC(=NNc1nc2ccccc2n1C)c1ccc(C)cn1 [Id-9, 1-(5-Methyl-2-pyridyl)-1-ethanone-1-(1-methyl-1H-benzo[d]imidazol-2-yl)-hydrazone] | – | – | – | – | – | – | – | IC50 [1, 14]: 110 nM; IC50 ([7]; Homo sapiens): 199 nM; IC90 ([7]; Homo sapiens): 3790 nM; Mean IC70 [7]: 560 nM; IC50 [6, 15]: 120 nM; IC50 [5, 16]: 40 nM
CC(=NNc1nc2ccccc2n1C)c1cccc(C)n1 [Id-10] | – | – | – | – | 1800 | 2230 | 490 | IC50 [2, 22]: 110 nM; IC50 [3, 18]: 800 nM; IC50 [4, 20]: 380 nM
CC(=NNc1nc2ccccc2n1C)c1cccc(N(C)C)n1 [Id-13] | – | – | – | – | 29500 | 4900 | 4020 | IC50 [2, 22]: 2010 nM; IC50 [3, 18]: 17600 nM; IC50 [4, 20]: 6600 nM
CC(=NNc1nc2ccccc2n1C)c1ncccc1-c1ccccc1 [Id-14] | – | – | – | – | 1420 | 700 | 550 | IC50 [2, 22]: 10 nM; IC50 [3, 18]: 70 nM; IC50 [4, 20]: 70 nM
